Test results published in ChEMBL document CHEMBL3785051, “Recent progress on third generation covalent EGFR inhibitors” (Bioorg Med Chem Lett, 2016).
Blank lines part the entries; values can stand above or below the molecule they belong to.

Columns and labels:
[1] = Oral bioavailability in Nu/Nu mouse at 20 mg/ kg; type: ADME, organism-based; conditions: in vivo
[2] = Antiproliferative activity against EGFR Del ex19 mutant expressing human PC9 cells assessed as cell viability after 72 hrs by CellTiterGlo analysis; type: functional; conditions: PC-9, 72 h
A-431 [3] = experiment: Antitumor activity against human A431 cells xenografted in NCR Nu/Nu mouse assessed as tumor growth inhibition at 50 mg/kg, ip administered as bid; type: functional; conditions: A-431, ip, read-out: TGI
A-431 [4] = experiment: Antiproliferative activity against wild type EGFR expressing human A431 cells assessed as cell viability after 72 hrs by CellTiterGlo analysis; type: functional; conditions: A-431, 72 h
[5] = Antiproliferative activity against EGFR Del ex19/T790M mutant expressing human HCC827EPR cells assessed as cell viability after 72 hrs by CellTiterGlo analysis; type: functional
NCI-H1975 = experiment: Antiproliferative activity against EGFR L858R / T790M double mutant expressing human NCI-H1975 cells assessed as cell viability after 72 hrs by CellTiterGlo analysis; type: functional; conditions: NCI-H1975, 72 h
[6] = Antiproliferative activity against EGFR Del 19 mutant expressing human HCC827 cells assessed as cell viability after 72 hrs by CellTiterGlo analysis; type: functional; conditions: HCC827, 72 h
[7] = Clearance in patient with EGFR TKI-resistant NSCLC at 20 to 240 mg, po qd; type: ADME, organism-based; conditions: human, in vivo
[8] = Half life in mouse at 25 mg/kg, po; type: ADME, organism-based; conditions: in vivo
[9] = Apparent half life in patient with EGFR TKI-resistant NSCLC at 20 to 240 mg, po qd; type: ADME, organism-based; conditions: human, in vivo, read-out: t1/2(app) (converted)
[10] = biological target: Epidermal growth factor receptor (Homo sapiens, UniProt P00533, L858R/T790M); experiment: Inhibition of EGFR T790M/L858R double mutant phosphorylation in human H1975 cells preincubated for 2 hrs by ELISA; type: cell-based
[11] = biological target: Epidermal growth factor receptor (Homo sapiens, UniProt P00533, EX19DEL); experiment: Inhibition of EGFR Del ex19 mutant phosphorylation in human PC9 cells preincubated for 2 hrs by ELISA; type: cell-based, PC-9
[12] = biological target: Epidermal growth factor receptor (Homo sapiens, UniProt P00533); experiment: Inhibition of wild type EGFR phosphorylation in human LoVo cells preincubated for 2 hrs followed by EGF stimulation measured after 30 mins by ELISA; type: cell-based
Sequence of Epidermal growth factor receptor (Homo sapiens, UniProt P00533) (P00533 whole entry): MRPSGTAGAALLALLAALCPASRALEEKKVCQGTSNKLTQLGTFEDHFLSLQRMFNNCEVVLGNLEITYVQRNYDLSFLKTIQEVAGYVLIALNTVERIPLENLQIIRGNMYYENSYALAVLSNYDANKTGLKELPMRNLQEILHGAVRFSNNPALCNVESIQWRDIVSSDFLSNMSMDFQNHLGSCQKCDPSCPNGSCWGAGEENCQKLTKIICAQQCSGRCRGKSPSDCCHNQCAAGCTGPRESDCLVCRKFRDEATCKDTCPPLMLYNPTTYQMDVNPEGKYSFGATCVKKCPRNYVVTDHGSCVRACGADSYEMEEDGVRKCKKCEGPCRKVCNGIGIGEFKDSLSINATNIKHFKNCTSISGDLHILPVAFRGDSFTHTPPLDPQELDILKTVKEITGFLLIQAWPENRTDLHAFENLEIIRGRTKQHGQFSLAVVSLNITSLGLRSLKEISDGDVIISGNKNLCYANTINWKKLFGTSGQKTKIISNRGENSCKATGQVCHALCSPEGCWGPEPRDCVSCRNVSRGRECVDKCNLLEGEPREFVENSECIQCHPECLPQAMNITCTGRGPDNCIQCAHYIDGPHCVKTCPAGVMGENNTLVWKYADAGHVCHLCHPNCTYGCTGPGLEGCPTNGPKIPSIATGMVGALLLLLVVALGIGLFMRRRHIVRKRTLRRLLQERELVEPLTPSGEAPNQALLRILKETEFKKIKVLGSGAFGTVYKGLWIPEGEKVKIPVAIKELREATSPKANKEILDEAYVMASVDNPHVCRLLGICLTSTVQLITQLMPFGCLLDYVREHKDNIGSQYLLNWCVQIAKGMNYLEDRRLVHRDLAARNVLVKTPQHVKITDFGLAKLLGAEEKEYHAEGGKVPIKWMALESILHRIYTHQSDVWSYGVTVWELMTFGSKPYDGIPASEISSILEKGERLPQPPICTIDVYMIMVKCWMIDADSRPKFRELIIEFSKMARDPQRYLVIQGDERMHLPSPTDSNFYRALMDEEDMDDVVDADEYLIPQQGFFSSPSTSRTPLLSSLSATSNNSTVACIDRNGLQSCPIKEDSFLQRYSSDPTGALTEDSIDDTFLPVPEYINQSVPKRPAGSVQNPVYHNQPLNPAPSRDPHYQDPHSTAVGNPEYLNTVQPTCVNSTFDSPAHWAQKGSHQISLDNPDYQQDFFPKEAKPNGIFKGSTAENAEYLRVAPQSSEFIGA

Sequence of Epidermal growth factor receptor (Homo sapiens, UniProt P00533, L858R/T790M) (P00533 25-1210 T790M/L858R limits assumed): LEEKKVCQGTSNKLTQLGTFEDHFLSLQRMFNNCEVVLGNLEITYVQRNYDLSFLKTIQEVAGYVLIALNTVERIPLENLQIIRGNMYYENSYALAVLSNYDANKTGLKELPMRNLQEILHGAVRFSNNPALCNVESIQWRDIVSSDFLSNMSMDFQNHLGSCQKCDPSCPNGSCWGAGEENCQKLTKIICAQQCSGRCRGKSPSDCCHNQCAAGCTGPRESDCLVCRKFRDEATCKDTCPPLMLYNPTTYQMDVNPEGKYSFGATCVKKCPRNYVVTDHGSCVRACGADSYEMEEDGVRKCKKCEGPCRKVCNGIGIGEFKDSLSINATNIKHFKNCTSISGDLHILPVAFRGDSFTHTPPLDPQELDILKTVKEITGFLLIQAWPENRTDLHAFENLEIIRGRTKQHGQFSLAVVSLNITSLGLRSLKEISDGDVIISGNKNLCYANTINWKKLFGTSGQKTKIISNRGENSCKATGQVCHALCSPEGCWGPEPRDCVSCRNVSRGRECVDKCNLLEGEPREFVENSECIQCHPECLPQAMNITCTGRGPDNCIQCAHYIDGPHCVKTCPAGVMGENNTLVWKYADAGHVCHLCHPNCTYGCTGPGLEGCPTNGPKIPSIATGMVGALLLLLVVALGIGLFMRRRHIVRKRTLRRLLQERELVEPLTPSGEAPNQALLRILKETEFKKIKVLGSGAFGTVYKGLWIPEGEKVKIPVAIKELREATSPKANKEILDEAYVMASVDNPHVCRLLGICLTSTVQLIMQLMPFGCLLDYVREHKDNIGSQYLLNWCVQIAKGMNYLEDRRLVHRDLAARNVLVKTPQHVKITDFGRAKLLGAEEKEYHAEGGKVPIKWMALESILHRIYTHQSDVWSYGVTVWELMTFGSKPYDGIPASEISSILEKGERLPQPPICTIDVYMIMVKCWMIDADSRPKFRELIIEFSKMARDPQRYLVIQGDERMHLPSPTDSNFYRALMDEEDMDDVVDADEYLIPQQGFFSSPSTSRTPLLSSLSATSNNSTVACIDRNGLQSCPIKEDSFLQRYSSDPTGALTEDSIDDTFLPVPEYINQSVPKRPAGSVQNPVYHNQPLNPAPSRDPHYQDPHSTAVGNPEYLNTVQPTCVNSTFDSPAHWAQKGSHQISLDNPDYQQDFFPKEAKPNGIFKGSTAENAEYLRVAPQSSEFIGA
Sequence of Epidermal growth factor receptor (Homo sapiens, UniProt P00533, EX19DEL) (P00533 whole entry, looked up, stated change not applied): as the sequence (P00533 whole entry) above

- bioavailability [1]: 65%
- GI50 (A-431 [4]): 547 nM
- GI50 (NCI-H1975): 7 nM
Structure (SMILES): C=CC(=O)Nc1cccc(Nc2nc(Nc3ccc(N4CCN(C(C)=O)CC4)cc3OC)ncc2C(F)(F)F)c1 [ROCILETINIB]
- GI50 [2]: 7 nM
- inhibition in vivo at 50 mg/kg (A-431 [3]): 36%
- GI50 [5]: 7 nM
- GI50 [6]: 7 nM

Structure (SMILES): C=CC(=O)Nc1cc(Nc2nccc(-c3cn(C)c4ccccc34)n2)c(OC)cc1N(C)CCN(C)C [OSIMERTINIB]
- CL/F [7]: 237 mL/min
- half-life [8]: 3 h
- half-life [9]: 55 h

- IC50 [10]: 45 nM
- IC50 [11]: 26 nM
- IC50 [12]: 786 nM
Structure (SMILES): C=CC(=O)Nc1cc(Nc2nccc(-c3cn(C)c4ccccc34)n2)c(OC)cc1N(C)CCNC

- IC50 [10]: 2 nM
- IC50 [11]: 2 nM
- IC50 [12]: 33 nM
Structure (SMILES): C=CC(=O)Nc1cc(Nc2nccc(-c3c[nH]c4ccccc34)n2)c(OC)cc1N(C)CCN(C)C
